Here are results for 2 compounds from paper PMC11111691, “Cystine-knot peptide inhibitors of HTRA1 bind to a cryptic pocket within the active site region” (Nature Communications, 2024).

The target in data set [1] is T1, HTRA2^PD/PDZ (Homo sapiens, UniProt O43464).
T1 construct: Human HTRA2^PD/PDZ (A134-E458) was from R & D Systems; purchased R & D Systems 1458-HT-100
T1 sequence (O43464 134-458): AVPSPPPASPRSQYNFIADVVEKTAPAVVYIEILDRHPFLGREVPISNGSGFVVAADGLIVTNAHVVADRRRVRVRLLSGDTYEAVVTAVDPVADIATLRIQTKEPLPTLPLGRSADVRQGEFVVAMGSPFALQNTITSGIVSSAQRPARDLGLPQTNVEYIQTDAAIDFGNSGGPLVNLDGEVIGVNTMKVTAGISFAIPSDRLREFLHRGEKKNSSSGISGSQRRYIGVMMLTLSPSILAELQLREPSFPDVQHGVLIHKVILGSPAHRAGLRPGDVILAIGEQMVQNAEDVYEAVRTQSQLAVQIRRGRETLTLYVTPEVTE
The data set is described as follows: Fluorescence-quenched casein-BODIPY assay, HTRA2. It is filed as biochemical. The following applies: 30 nM HTRA2^PD/PDZ, 2 µM CKP (0.5 mM 7mer-ABP). The method, then:
The fluorescence-quenched casein-BODIPY® assay (EnzCheck®, Thermo Fisher Scientific) was carried out in TNC buffer (50 mM Tris pH 8.0, 200 mM NaCl, 0.25% CHAPS) at 37 °C in 96-well black optical bottom plates (Nalge Nunc Int., Rochester, NY). Enzymes were incubated with CKPs or DMSO control for 15 min prior to addition of casein substrate. The reactant concentrations were: 30 nM HTRA1^FL, 30 nM HTRA1^PD/PDZ, 30 nM HTRA1^PD, 30 nM HTRA2^PD/PDZ, 30 nM HTRA3^FL, 100 nM HTRA3^PD/PDZ, 30 nM HTRA4^FL, 300 nM HTRA4^PD/PDZ, 2 µM CKP, 5 µg/ml casein substrate and 0.25% DMSO. For selectivity assays, 0.5 mM 7mer-ABP was used as positive control. The kinetics of substrate cleavage were measured at 37 °C on a SpectraMax M5 microplate reader (Molecular Devices) with excitation of 485 nm and emission of 530 nm for 30 min (HTRA1 and HTRA2) or 5 h (HTRA3 and HTRA4). The determined initial rates of cleavage were expressed as percent of control (DMSO control) after subtracting the baseline rates (without enzyme).

The target in a further data set is T2, HTRA1^PD/PDZ (Homo sapiens, UniProt Q92743).
T2 construct: made in house; host or cells: E. coli
T2 sequence (Q92743 161-480): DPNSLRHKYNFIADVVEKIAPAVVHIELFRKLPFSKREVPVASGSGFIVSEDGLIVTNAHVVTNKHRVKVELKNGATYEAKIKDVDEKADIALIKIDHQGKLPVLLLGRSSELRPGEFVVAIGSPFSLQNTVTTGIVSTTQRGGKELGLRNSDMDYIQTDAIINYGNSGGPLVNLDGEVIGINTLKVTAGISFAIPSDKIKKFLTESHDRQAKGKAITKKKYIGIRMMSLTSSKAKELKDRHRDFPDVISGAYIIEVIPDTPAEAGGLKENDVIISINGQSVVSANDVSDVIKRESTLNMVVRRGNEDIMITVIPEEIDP
Nature of the data set: H2-OPT selectivity assay, HTRA1^PD/PDZ. The data set is classed as biochemical. The following applies: 3 nM HTRA1^PD/PDZ, 2 µM CKP (0.5 mM 7mer-ABP), 5 µM H2-OPT. The method, then:
(§1) Assays with the fluorescence-quenched synthetic substrate Mca-IRRVSYSFK(Dnp)K (H2-OPT)[38],[60] were carried out essentially as described. CKP stock solutions in DMSO were diluted in TNC buffer (dilution series for IC50 determinations, or final concentration of 2 µM for selectivity assay or as indicated for HTRA1/4 mutants) and incubated with enzymes in 96-well black optical bottom plates for 60 min at 37 °C. For selectivity experiments we used the 7mer-ABP as inhibitor, which was incubated with the proteases for 15 min at 37 °C. A 10 mM stock solution of H2-OPT in DMSO was diluted with water, prewarmed at 37 °C and then added to the CKP-enzyme mixtures. The final concentrations in the reaction mixtures were: 1 nM HTRA1^FL, 3 nM HTRA1^PD/PDZ, 1 nM HTRA1^PD, 1 nM HTRA2^PD/PDZ, 3 nM HTRA3^FL, 60 nM HTRA3^PD/PDZ, 6 nM HTRA4^FL, 1 µM HTRA4^PD/PDZ, 1 nM mouse HTRA1^PD, 25 nM HTRA1^PD-A202Y, 1 µM HTRA4^PD/PDZ-Y200A, 0.5 mM 7mer-ABP, 5 µM H2-OPT, and 0.25% DMSO. The kinetics of substrate cleavage was measured at 37 °C on a SpectraMax M5 microplate reader with excitation of 328 nm and emission of 393 nm. The determined initial rates of cleavage were expressed as percent of control (DMSO control) after subtracting the baseline rates (without enzyme). IC50 values were determined by Sigmoidal 4PL modeling of multiple data points from serial dilutions of CKPs using Prism 9 software (GraphPad). […]

For data set [2], the target named is T1, HTRA2^PD/PDZ. The data set is described as follows: H2-OPT selectivity assay, HTRA2. The data set is classed as biochemical. The following applies: 1 nM HTRA2^PD/PDZ, 2 µM CKP (0.5 mM 7mer-ABP), 5 µM H2-OPT. The method, then: as §1
The next data set deals with HeLa cells. Nature of the data set: Cell toxicity assay (CellTiter-Glo), HeLa. The data set is classed as cell-based. The method, then: (§2) reduction at the highest CKP concentration of 50 µM after 72 h (see results below). The absence of cell toxicity is likely due to the inability of the CKPs to penetrate cell membranes, which was experimentally determined in response to another reviewer. Due to space limitations we have not […]
(§3) Protocol of cell toxicity assay (Figure above):
(§4) HeLa cells or C32 melanoma cells were passaged in DMEM media supplemented with 10% FBS, 1% pen-strep and 1x Glutamax using standard culture conditions (5% CO2, 90% humidity at 37°C). At approximately 95% confluence cells were trypsinized, seeded onto 96-well plates (Corning) at 10,000 cells/well and grown for 24 h. Cells were then incubated with the CKPs 3B3, 1D3-ENI and 1G10-ENI (0, 0.6, 1.9, 5.6, 16.7 and 50 µM) at 37°C for 24 h or for 72h. As a positive control we used staurosporine (STS; 1µM). Cell viability was measured using the CellTiter-Glo luminescent cell viability assay (Promega) on an Envision Multilabel plate reader. Average of at least three independent experiments ± S.D. were plotted in Prism 10. Two-way ANOVA was performed on each dataset and compared to no drug samples and no significant viability reductions were observed, except for some treatments at the […]
In general terms: In ATP-based viability assays light output follows the ATP content of the culture.

A further data set relates to C32 melanoma cells. The data set is described as follows: Cell toxicity assay (CellTiter-Glo), C32. The data set is classed as cell-based, human. The following applies: 0.6-50 µM CKP, 24 h and 72 h, at least three independent experiments. The method, then:
as §2, §3, §4

Positions of bridges follow the written chain, without caps; N, C: chain ends. Residues, ends and D or L forms follow the SMILES beside them.

As for DPMFKLV-phosphonate [7mer-ABP], the “Inhibition of HTRA2^PD/PDZ, casein-BODIPY cleavage (% of control)” value at HTRA2^PD/PDZ [1] is reported as “significantly inhibited”. The “Inhibition of HTRA1^PD/PDZ, H2-OPT (% of control)” value at HTRA1^PD/PDZ is on record as “significantly inhibited”. On HTRA2^PD/PDZ [2], the “Inhibition of HTRA2^PD/PDZ, H2-OPT (% of control)” value is reported as “significantly inhibited”.

Consider `CC[C@H](C)[C@H](NC(=O)[C@@H]1CCCN1C(=O)[C@H](CC(=O)O)NC(=O)[C@H](C)NC(=O)[C@@H](N)Cc1c[nH]cn1)C(=O)N[C@H]1CSSC[C@@H]2NC(=O)[C@H](Cc3ccccc3)NC(=O)[C@H](Cc3c[nH]c4ccccc34)NC(=O)[C@H](C)NC(=O)CNC(=O)[C@H](CO)NC(=O)[C@@H]3CSSC[C@@H](C(=O)NCC(=O)N4CCC[C@H]4C(=O)N[C@@H](Cc4ccc(O)cc4)C(=O)N[C@H](C(=O)NCC(N)=O)C(C)C)NC(=O)[C@H](CO)NC(=O)[C@H](Cc4c[nH]c5ccccc45)NC(=O)[C@H]([C@@H](C)O)NC(=O)[C@H](C)NC(=O)[C@H](Cc4ccc(O)cc4)NC(=O)[C@H](Cc4ccc(O)cc4)NC(=O)[C@H](CSSC[C@H](NC(=O)[C@@H]4CCCN4C(=O)[C@H](CCCCN)NC(=O)[C@H](CC(N)=O)NC1=O)C(=O)N[C@@H](CCCCN)C(=O)N[C@@H]([C@@H](C)O)C(=O)N[C@@H](Cc1c[nH]cn1)C(=O)N[C@@H](CC(=O)O)C(=O)N[C@@H](CC(=O)O)C(=O)N3)NC(=O)[C@H](C)NC(=O)[C@H](CCC(N)=O)NC2=O` [3B3] (H-HADPICNKPCKTHDDCSGAWFCQACYYATWSCGPYVG-NH2; disulfide 6-22, 10-25, 16-32), for which the “Viability reduction, HeLa cells, 24 h” value with HeLa cells (50 µM CKP, 24 h) is 9%. Besides, the “Viability reduction, HeLa cells, 72 h” value in the data set on HeLa cells (50 µM CKP, 72 h) is listed as 13%. Moreover, the “Cell viability, HeLa cells” value in the data set with HeLa cells (0.6-50 µM CKP, 24 h and 72 h, at least three independent experiments) is listed as “did not appreciably affect cell viability”. In the data set on C32 melanoma cells, the “Cell viability, C32 melanoma cells” value is “did not appreciably affect cell viability”.
